{"source": "patent US8642799B2", "about": "“Cysteine protease inhibitors for the treatment of parasitic diseases” (Merck Canada Inc., priority 2007, dated 2014)", "data": [{"target": "cruzipain (Trypanosoma cruzi, UniProt P25779)", "sequence (P25779 123-467)": "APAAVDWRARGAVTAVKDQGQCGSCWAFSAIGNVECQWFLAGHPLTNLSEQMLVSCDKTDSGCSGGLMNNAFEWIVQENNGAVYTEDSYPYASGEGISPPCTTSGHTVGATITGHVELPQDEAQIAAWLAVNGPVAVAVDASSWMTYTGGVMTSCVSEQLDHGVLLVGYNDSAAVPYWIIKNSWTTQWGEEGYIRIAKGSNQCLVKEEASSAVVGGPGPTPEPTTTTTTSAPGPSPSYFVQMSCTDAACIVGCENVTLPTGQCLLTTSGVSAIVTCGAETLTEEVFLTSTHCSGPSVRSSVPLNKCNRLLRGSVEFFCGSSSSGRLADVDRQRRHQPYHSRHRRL", "experiment": "biochemical", "settings": "50 pM cruzipain, pH 5.5, 15 minutes preincubation, 2 μM Z-Phe-Arg-AMC substrate", "procedure": "The assay solutions were mixed and incubated for 15 minutes at room temperature prior to the addition of 2 μM of Z-Phe-Arg-AMC substrate. […] Percent of inhibition were calculated by fitting experimental values to standard mathematical model for dose response curve.", "units": {"IC50": "nM"}, "values": [{"compound": "CC(C)(F)C[C@H](N[C@@H](c1ccc(-c2ccc(C3(C(=O)NCC(N)=O)CC3)cc2)cc1)C(F)(F)F)C(=O)N[C@H](C#N)Cc1ccccc1", "note": "[Example 55, 1-[4′-((S)-1-{(S)-1-[((S)-Benzyl-cyano-methyl)-carbamoyl]-3-fluoro-3-methyl-butylamino}-2,2,2-trifluoro-ethyl)-biphenyl-4-yl]-cyclopropanecarboxylic acid carbamoylmethyl-amide]", "IC50": 1.9}, {"compound": "CC(C)(F)C[C@H](N[C@@H](c1ccc(-c2ccc(C3(C(=O)NC4CC4)CC3)cc2)cc1)C(F)(F)F)C(=O)N[C@H](C#N)Cc1ccccc1", "note": "[Example 56, 1-[4′-((S)-1-{(S)-1-[((S)-Benzyl-cyano-methyl)-carbamoyl]-3-fluoro-3-methyl-butylamino}-2,2,2-trifluoro-ethyl)-biphenyl-4-yl]-cyclopropanecarboxylic acid cyclopropylamide]", "IC50": 3.7}, {"compound": "C=CCNC(=O)C1(c2ccc(-c3ccc([C@H](N[C@@H](CC(C)(C)F)C(=O)N[C@H](C#N)Cc4ccccc4)C(F)(F)F)cc3)cc2)CC1", "note": "[Example 57, 1-[4′-((S)-1-{(S)-1-[((S)-Benzyl-cyano-methyl)-carbamoyl]-3-fluoro-3-methyl-butylamino}-2,2,2-trifluoro-ethyl)-biphenyl-4-yl]-cyclopropanecarboxylic acid allylamide]", "IC50": 4.3}, {"compound": "CC(C)[C@H](N[C@@H](c1ccc(-c2ccc(C3(C(=O)O)CC3)cc2)cc1)C(F)(F)F)C(=O)N[C@H](C#N)Cc1ccc(C#N)cc1F", "note": "[Example 58, 1-{4′-[(S)-1-((S)-1-{[(S)-Cyano-(4-cyano-2-fluoro-benzyl)-methyl]-carbamoyl}-2-methyl-propylamino)-2,2,2-trifluoro-ethyl]-biphenyl-4-yl}-cyclopropanecarboxylic acid]", "IC50": 0.3}, {"compound": "CC(C)[C@H](N[C@@H](c1ccc(-c2ccc(C3(C(=O)NCCO)CC3)cc2)cc1)C(F)(F)F)C(=O)N[C@H](C#N)Cc1ccc(C#N)cc1F", "note": "[Example 59, 1-{4′-[(S)-1-((S)-1-{[(S)-Cyano-(4-cyano-2-fluoro-benzyl)-methyl]-carbamoyl}-2-methyl-propylamino)-2,2,2-trifluoro-ethyl]-biphenyl-4-yl}-cyclopropanecarboxylic acid (2-hydroxy-ethyl)-amide]", "IC50": 0.1}, {"compound": "CC(C)[C@H](N[C@@H](c1ccc(-c2ccc([C@@H](O)C(F)F)cc2)cc1)C(F)(F)F)C(=O)N[C@H](C#N)Cc1ccc(C(F)(F)F)cc1F", "note": "[Example 61, (S)-N-[(S)-Cyano-(2-fluoro-4-trifluoromethyl-benzyl)-methyl]-2-{(S)-1-[4′-((R)-2,2-difluoro-1-hydroxy-ethyl)-biphenyl-4-yl]-2,2,2-trifluoro-ethylamino}-3-methyl-butyramide]", "IC50": 1.5}, {"compound": "CC(C)[C@H](N[C@@H](c1ccc(-c2ccc(S(C)(=O)=O)cc2)cc1)C(F)(F)F)C(=O)N[C@H](C#N)Cc1ccc(C(F)(F)F)cc1F", "note": "[Example 62, (S)-N-[(S)-Cyano-(2-fluoro-4-trifluoromethyl-benzyl)-methyl]-3-methyl-2-[(S)-2,2,2-trifluoro-1-(4′-methanesulfonyl-biphenyl-4-yl)-ethylamino]-butyramide]", "IC50": 0.4}, {"compound": "CC(C)(F)C[C@H](N[C@@H](c1ccc(-c2ccc(S(C)(=O)=O)cc2)cc1)C(F)(F)F)C(=O)N[C@H](C#N)Cc1cccnc1", "note": "[Example 64, (S)-4-Fluoro-4-methyl-2-[(S)-2,2,2-trifluoro-1-(4′-methanesulfonyl-biphenyl-4-yl)-ethylamino]-pentanoic acid ((S)-cyano-pyridin-3-ylmethyl-methyl)-amide]", "IC50": 12.6}, {"compound": "CC(C)(F)C[C@H](N[C@@H](c1ccc(-c2ccc(S(C)(=O)=O)cc2)cc1)C(F)(F)F)C(=O)N[C@H](C#N)Cc1cccc[n+]1[O-]", "note": "[Example 65, (S)-4-Fluoro-4-methyl-2-[(S)-2,2,2-trifluoro-1-(4′-methanesulfonyl-biphenyl-4-yl)-ethylamino]-pentanoic acid [(S)-cyano-(1-oxy-pyridin-2-ylmethyl)-methyl]-amide]", "IC50": 15}, {"compound": "CC(C)(F)C[C@H](N[C@@H](c1ccc(-c2ccc(S(C)(=O)=O)cc2)cc1)C(F)(F)F)C(=O)N[C@H](C#N)Cc1c(F)cc(Br)cc1F", "note": "[Example 66, (S)-4-Fluoro-4-methyl-2-[(S)-2,2,2-trifluoro-1-(4′-methanesulfonyl-biphenyl-4-yl)-ethylamino]-pentanoic acid [(S)-(4-bromo-2,6-difluorobenzyl)-cyano-methyl]-amide]", "IC50": 1.6}, {"compound": "CC(C)(F)C[C@H](N[C@@H](c1ccc(-c2ccc(S(C)(=O)=O)cc2)cc1)C(F)(F)F)C(=O)N[C@H](C#N)Cc1c(F)cc(C#N)cc1F", "note": "[Example 67, (S)-4-Fluoro-4-methyl-2-[(S)-2,2,2-trifluoro-1-(4′-methanesulfonyl-biphenyl-4-yl)-ethylamino]-pentanoic acid [(S)-cyano-(4-cyano-2,6-difluoro-benzyl)-methyl]-amide]", "IC50": 0.9}, {"compound": "CS(=O)(=O)c1ccc(-c2ccc([C@H](N[C@H](C(=O)N[C@H](C#N)Cc3ccc(C#N)cc3F)C3CC3)C(F)(F)F)cc2)cc1", "note": "[Example 68, (S)-N-[(S)-Cyano-(4-cyano-2-fluoro-benzyl)-methyl]-2-cyclopropyl-2-[(S)-2,2,2-trifluoro-1-(4′-methanesulfonyl-biphenyl-4-yl)-ethylamino]-acetamide]", "IC50": 4.4}, {"compound": "N#Cc1ccc(C[C@@H](C#N)NC(=O)[C@@H](N[C@@H](c2ccc(-c3ccc([C@@H](O)C(F)F)cc3)cc2)C(F)(F)F)C2CC2)c(F)c1", "note": "[Example 69, (S)-N-[(S)-Cyano-(4-cyano-2-fluoro-benzyl)-methyl]-2-cyclopropyl-2-{(S)-1-[4′-((R)-2,2-difluoro-1-hydroxy-ethyl)-biphenyl-4-yl]-2,2,2-trifluoro-ethylamino}-acetamide]", "IC50": 4.3}, {"compound": "CC(C)[C@H](N[C@@H](c1ccc(-c2ccc(S(C)(=O)=O)cc2)cc1)C(F)(F)F)C(=O)N[C@H](C#N)Cc1c(F)cc(Br)cc1F", "note": "[Example 70, (S)-N-[(S)-(4-Bromo-2,6-difluoro-benzyl)-cyano-methyl]-3-methyl-2-[(S)-2,2,2-trifluoro-1-(4′-methanesulfonyl-biphenyl-4-yl)-ethylamino]-butyramide]", "IC50": 0.6}, {"compound": "CC(C)[C@H](N[C@@H](c1ccc(-c2ccc([C@@H](O)C(F)F)cc2)cc1)C(F)(F)F)C(=O)N[C@H](C#N)Cc1c(F)cc(Br)cc1F", "note": "[Example 71, (S)-N-[(S)-(4-Bromo-2,6-difluoro-benzyl)-cyano-methyl]-2-{(S)-1-[4′-((R)-2,2-difluoro-1-hydroxy-ethyl)-biphenyl-4-yl]-2,2,2-trifluoro-ethylamino}-3-methyl-butyramide]", "IC50": 2.1}, {"compound": "CC(C)[C@H](N[C@@H](c1ccc(-c2ccc(S(C)(=O)=O)cc2)cc1)C(F)(F)F)C(=O)N[C@H](C#N)Cc1c(F)cc(C#N)cc1F", "note": "[Example 72, (S)-N-[(S)-Cyano-(4-cyano-2,6-difluoro-benzyl)-methyl]-3-methyl-2-[(S)-2,2,2-trifluoro-1-(4,- methanesulfonyl-biphenyl-4-yl)-ethylamino]-butyramide]", "IC50": 0.5}, {"compound": "CC(C)[C@H](N[C@@H](c1ccc(-c2ccc([C@@H](O)C(F)F)cc2)cc1)C(F)(F)F)C(=O)N[C@H](C#N)Cc1c(F)cc(C#N)cc1F", "note": "[Example 73, (S)-N-[(S)-Cyano-(4-cyano-2,6-difluoro-benzyl)-methyl]-2-{(S)-1-[4,- ((R)-2,2-difluoro-1-hydroxy-ethyl)-biphenyl-4-yl]-2,2,2-trifluoro-ethylamino}-3-methyl-butyramide]", "IC50": 0.7}, {"compound": "CC(C)(F)C[C@H](N[C@@H](c1ccc(-c2ccc(S(C)(=O)=O)cc2)cc1)C(F)(F)F)C(=O)N[C@H](C#N)Cc1ccc[n+]([O-])c1", "note": "[Example 74, (S)-4-Fluoro-4-methyl-2-[(S)-2,2,2-trifluoro-1-(4′-methanesulfonyl-biphenyl-4-yl)-ethylamino]-pentanoic acid [(S)-cyano-(1-oxy-pyridin-3-ylmethyl)-methyl]-amide]", "IC50": 39}, {"compound": "CC(C)(F)C[C@H](N[C@@H](c1ccc(-c2ccc(S(C)(=O)=O)cc2)cc1)C(F)(F)F)C(=O)N[C@H](C#N)Cc1cc[n+]([O-])cc1", "note": "[Example 75, (S)-4-Fluoro-4-methyl-2-[(S)-2,2,2-trifluoro-1-(4′-methanesulfonyl-biphenyl-4-yl)-ethylamino]-pentanoic acid [(S)-cyano-(1-oxy-pyridin-4-ylmethyl)-methyl]-amide]", "IC50": 120}, {"compound": "CC(C)(F)C[C@H](N[C@@H](c1ccc(-c2ccc(S(C)(=O)=O)cc2)cc1)C(F)(F)F)C(=O)N[C@H](C#N)Cc1c(F)cccc1F", "note": "[Example 76, (S)-4-Fluoro-4-methyl-2-[(S)-2,2,2-trifluoro-1-(4′-methanesulfonyl-biphenyl-4-yl)-ethylamino]-pentanoic acid [(S)-cyano-(2,6-difluoro-benzyl)-methyl]-amide]", "IC50": 7.1}]}]}
